According to US20210038587A1, “METHODS AND COMPOSITIONS FOR TREATING NON-ERK MAPK PATHWAY INHIBITOR-RESISTANT CANCERS” (BIOMED VALLEY DISCOVERIES, INC., priority 2013, published 2021):

Columns and labels:
[1] = system: A375, MIAPaCa-2, HCT116, Colo205, HT-29, and AN3Ca cells; test: Reverse Phase Protein Analysis (RPPA), all six cell lines; assay type: cell-based; conditions: 10 μM, 6 hours
Procedure: Control wells were treated with DMSO at 0.1% (v/v) for 6 hours prior to cell lysate generation. Samples were then analyzed using reverse-phase protein microarray technology (Theranostics Health).
Cell lines with common alterations in BRAF and RAS were assayed: BRAF^V600E mutant lines A375, Colo205, and HT29; KRAS^G12C-mutant cell line MIAPACa-2; KRAS^G13D-mutant cell line HCT116; and AN3Ca with atypical HRAS^F82L mutation. Changes in protein levels are shown as a percentage change from dimethyl sulfoxide (DMSO)-treated parental control (FIG. 32A and Table 23).

Colo205 = test: Reverse Phase Protein Analysis (RPPA); assay type: cell-based, human; conditions: % change from DMSO (matched cell line)
AN3Ca = test: Reverse Phase Protein Analysis (RPPA); assay type: cell-based; conditions: % change from DMSO (matched cell line)
Summary of the method: (§1)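 Cells were treated 6 h before lysis, with 0.1% (v/v) DMSO as control. Lysates were analysed by reverse-phase protein microarray. Protein changes are expressed as percentage change from DMSO-treated parental cells.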

HT29 = test: Reverse Phase Protein Analysis (RPPA); assay type: cell-based; conditions: % change from DMSO (matched cell line)
Summary of the method: as §1

MIAPaCa-2 = test: Reverse Phase Protein Analysis (RPPA); assay type: cell-based; conditions: MIAPaca2; % change from DMSO (matched cell line)

Cc1cnc(Nc2ccc(F)cc2Cl)nc1-c1c[nH]c(C(=O)N[C@H](CO)c2cccc(Cl)c2)c1 [Vx-11e]
pERK1/2 (ERK1/2-T202, -Y204) [1]: markedly increased pERK1/2 | Avg (4ebp1 T70) (Colo205): −43.71% | Avg (Akt S473) (Colo205): −10.96% | Avg (Akt) (Colo205): −12.51% | Avg (Bad S136) (Colo205): −1.01% | Avg (Bad S155) (Colo205): −9.72% | Avg (Bak) (Colo205): −2.79% | Avg (Bax) (Colo205): −9.16% | Avg (Bcl 2) (Colo205): −14.09% | Avg (Bcl2 S70) (Colo205): −20.82% | Avg (Bcl 2 T56) (Colo205): −12.02% | Avg (Bim) (Colo205): 34.1% | Avg (CREB S133) (Colo205): −10.64% | Avg (Caspase 3 CL D175) (Colo205): −2.67% | Avg (Caspase 7 Cl D198) (Colo205): 0.03% | Avg (Chk1) (Colo205): −9.16% | Avg (Chk1 S345) (Colo205): 13.12% | Avg (Cyclin D1) (Colo205): −39.79% | Avg (ERK 1 2) (Colo205): −12.32% | Avg (ERK 1 2 T202 Y204) (Colo205): 98.48% | Avg (MAK1 S360) (Colo205): 6.22% | Avg (Mcl1) (Colo205): −10.64% | Avg (Raptor S792) (Colo205): 0.2% | Avg (Raptor) (Colo205): −0.05% | Avg (Rictor) (Colo205): 1.65% | Avg (Stat1) (Colo205): −6.1% | Avg (Stat3) (Colo205): −7.96% | Avg (bad S112) (Colo205): −30.28% | Avg (c Fos) (Colo205): −19.34% | Avg (c Myc) (Colo205): −7.42% | Avg (mTOR S2448) (Colo205): −8.52% | Avg (mTOR S2481) (Colo205): −9.43% | Avg (mTOR) (Colo205): 3.62% | Avg (p70 S6 Kinase) (Colo205): −3.42% | Avg (p90 RSK S380) (Colo205): −58.6% | Avg(S6 Ribo Prot S235 236) (Colo205): −93.04% | Avg(S6 Ribo Prot S240 244) (Colo205): −94.89% | Avg(Tuberin TSC2 Y1571) (Colo205): −9.45% | Avg(p70 S6 Kinase S371 S394) (Colo205): −13.64% | Avg(p70 S6 Kinase T389 T412) (Colo205): −28% | Avg (4ebp1 T70) (AN3Ca): 16.67% | Avg (Akt S473) (AN3Ca): 56.17% | Avg (Akt) (AN3Ca): −24.62% | Avg (Bad S136) (AN3Ca): −3.81% | Avg (Bad S155) (AN3Ca): 4.59% | Avg (Bak) (AN3Ca): −1.6% | Avg (Bax) (AN3Ca): −7.89% | Avg (Bcl 2) (AN3Ca): −18.77% | Avg (Bcl2 S70) (AN3Ca): −14.39% | Avg (Bcl 2 T56) (AN3Ca): −11.73% | Avg (Bim) (AN3Ca): −1.46% | Avg (CREB S133) (AN3Ca): 0.16% | Avg (Caspase 3 CL D175) (AN3Ca): −12.7% | Avg (Caspase 7 Cl D198) (AN3Ca): −8.09% | Avg (Chk1) (AN3Ca): −0.46% | Avg (Chk1 S345) (AN3Ca): −9.54% | Avg (Cyclin D1) (AN3Ca): −9.59% | Avg (ERK 1 2) (AN3Ca): −11.27% | Avg (ERK 1 2 T202 Y204) (AN3Ca): 718.94% | Avg (MAK1 S360) (AN3Ca): 6.83% | Avg (Mcl1) (AN3Ca): −4.24% | Avg (Raptor S792) (AN3Ca): 0.37% | Avg (Raptor) (AN3Ca): −2.47% | Avg (Rictor) (AN3Ca): 0.02% | Avg (Stat1) (AN3Ca): −0.83% | Avg (Stat3) (AN3Ca): −7.67% | Avg (bad S112) (AN3Ca): −45.63% | Avg (c Fos) (AN3Ca): −5.52% | Avg (c Myc) (AN3Ca): −5.47% | Avg (mTOR S2448) (AN3Ca): −2.37% | Avg (mTOR S2481) (AN3Ca): 7.22% | Avg (mTOR) (AN3Ca): −6.27% | Avg (p70 S6 Kinase) (AN3Ca): −2.33% | Avg (p90 RSK S380) (AN3Ca): −28.41% | Avg(S6 Ribo Prot S235 236) (AN3Ca): −18.54% | Avg(S6 Ribo Prot S240 244) (AN3Ca): −12.55% | Avg(Tuberin TSC2 Y1571) (AN3Ca): 3.8% | Avg(p70 S6 Kinase S371 S394) (AN3Ca): 44.04% | Avg(p70 S6 Kinase T389 T412) (AN3Ca): 0.56% | Avg (4ebp1 T70) (HT29): −2.89% | Avg (Akt S473) (HT29): −20.5% | Avg (Akt) (HT29): −17.84% | Avg (Bad S136) (HT29): 5.53% | Avg (Bad S155) (HT29): −11.26% | Avg (Bak) (HT29): 2.69% | Avg (Bax) (HT29): −18.47% | Avg (Bcl 2) (HT29): −16.73% | Avg (Bcl2 S70) (HT29): −12.55% | Avg (Bcl 2 T56) (HT29): −25.01% | Avg (Bim) (HT29): 3.12% | Avg (CREB S133) (HT29): 14.16% | Avg (Caspase 3 CL D175) (HT29): −2.86% | Avg (Caspase 7 Cl D198) (HT29): 8.28% | Avg (Chk1) (HT29): 4.68% | Avg (Chk1 S345) (HT29): 6.44% | Avg (Cyclin D1) (HT29): −35.2% | Avg (ERK 1 2) (HT29): 0.24% | Avg (ERK 1 2 T202 Y204) (HT29): 435.68% | Avg (MAK1 S360) (HT29): 5.64% | Avg (Mcl1) (HT29): 1.36% | Avg (Raptor S792) (HT29): −2.13% | Avg (Raptor) (HT29): −6.53% | Avg (Rictor) (HT29): −2.6% | Avg (Stat1) (HT29): 4.29% | Avg (Stat3) (HT29): −4.28% | Avg (bad S112) (HT29): −35.62% | Avg (c Fos) (HT29): −8.23% | Avg (c Myc) (HT29): 10.71% | Avg (mTOR S2448) (HT29): −13.94% | Avg (mTOR S2481) (HT29): 0.52% | Avg (mTOR) (HT29): 16.94% | Avg (p70 S6 Kinase) (HT29): −1.72% | Avg (p90 RSK S380) (HT29): −43.41% | Avg(S6 Ribo Prot S235 236) (HT29): −32.8% | Avg(S6 Ribo Prot S240 244) (HT29): −24.35% | Avg(Tuberin TSC2 Y1571) (HT29): 2.85% | Avg(p70 S6 Kinase S371 S394) (HT29): −22.86% | Avg(p70 S6 Kinase T389 T412) (HT29): −12.31% | Avg (4ebp1 T70) (MIAPaCa-2): −15.72% | Avg (Akt S473) (MIAPaCa-2): 0.48% | Avg (Akt) (MIAPaCa-2): −0.15% | Avg (Bad S136) (MIAPaCa-2): 0.36% | Avg (Bad S155) (MIAPaCa-2): 7.38% | Avg (Bak) (MIAPaCa-2): −1.93% | Avg (Bax) (MIAPaCa-2): 4.33% | Avg (Bcl 2) (MIAPaCa-2): −2.3% | Avg (Bcl2 S70) (MIAPaCa-2): −7.83% | Avg (Bcl 2 T56) (MIAPaCa-2): −9.86% | Avg (Bim) (MIAPaCa-2): 2.1% | Avg (CREB S133) (MIAPaCa-2): −13.28% | Avg (Caspase 3 CL D175) (MIAPaCa-2): 6.17% | Avg (Caspase 7 Cl D198) (MIAPaCa-2): −0.32% | Avg (Chk1) (MIAPaCa-2): −1.8% | Avg (Chk1 S345) (MIAPaCa-2): 2.09% | Avg (Cyclin D1) (MIAPaCa-2): −33.96% | Avg (ERK 1 2) (MIAPaCa-2): −14.85% | Avg (ERK 1 2 T202 Y204) (MIAPaCa-2): 729.27% | Avg (MAK1 S360) (MIAPaCa-2): −0.87% | Avg (Mcl1) (MIAPaCa-2): −6.58% | Avg (Raptor S792) (MIAPaCa-2): −3.74% | Avg (Raptor) (MIAPaCa-2): 5.4% | Avg (Rictor) (MIAPaCa-2): −13.24% | Avg (Stat1) (MIAPaCa-2): −1.64% | Avg (Stat3) (MIAPaCa-2): 0.61% | Avg (bad S112) (MIAPaCa-2): −20.85% | Avg (c Fos) (MIAPaCa-2): −4.43% | Avg (c Myc) (MIAPaCa-2): −5.94% | Avg (mTOR S2448) (MIAPaCa-2): −5.38% | Avg (mTOR S2481) (MIAPaCa-2): −3.12% | Avg (mTOR) (MIAPaCa-2): −1.58% | Avg (p70 S6 Kinase) (MIAPaCa-2): −9.27% | Avg (p90 RSK S380) (MIAPaCa-2): −39.91% | Avg(S6 Ribo Prot S235 236) (MIAPaCa-2): −63.36% | Avg(S6 Ribo Prot S240 244) (MIAPaCa-2): −74.82% | Avg(Tuberin TSC2 Y1571) (MIAPaCa-2): −0.01% | Avg(p70 S6 Kinase S371 S394) (MIAPaCa-2): −30.35% | Avg(p70 S6 Kinase T389 T412) (MIAPaCa-2): −30.66%
